Experimental data taken from US6686353B1, “Diarylalkyl cyclic diamine derivatives as chemokine receptor antagonists” (Teijin Intellectual Property Center Limited, priority 1996, dated 2004).
Read-outs that look alike come from different tables or passages of the source.

What was measured:
[1] = biological target: T1, human MCP-1 binding to THP-1 cells (Homo sapiens, UniProt P41597); experiment: Inhibition of [125I]-labeled human MCP-1 binding to THP-1 cells; conditions: at 100 μM test compound; read-out: inhibitory activity (inhibition of human MCP-1 binding to THP-1 cells)
T1 construct: endogenous in cells; host or cells: THP-1 (human monocytic leukemia cell line), whole cells
T1 sequence (P41597 1-360 isoform P41597-2): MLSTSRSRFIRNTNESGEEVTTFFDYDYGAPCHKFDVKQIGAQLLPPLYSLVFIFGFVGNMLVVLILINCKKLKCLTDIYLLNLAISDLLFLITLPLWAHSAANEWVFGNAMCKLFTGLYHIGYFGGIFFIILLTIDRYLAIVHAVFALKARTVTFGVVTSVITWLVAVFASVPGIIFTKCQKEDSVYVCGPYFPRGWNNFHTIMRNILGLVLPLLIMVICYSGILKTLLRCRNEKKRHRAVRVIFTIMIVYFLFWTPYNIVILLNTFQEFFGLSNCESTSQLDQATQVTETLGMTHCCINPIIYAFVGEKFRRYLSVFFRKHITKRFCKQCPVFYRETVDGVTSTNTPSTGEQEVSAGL
From the text: Measurement of Inhibition of MCP-1 Binding to TP-1 Cells
1. Construction of Recombinant Baculovirus Carrying the Human MCP-1 Gene
Based on the previously published human MCP-1 gene sequence (for example T. Yoshimura et al., Febs Letters, 1989, 244, 487-493), two synthetic DNA primers (5′-[…]-3′ and 5′-[…]-3′) flanked by restriction enzyme sites were used to amplify a DNA fragment from cDNA derived from human endothelial cells (purchased from Kurabow Co.); the amplified fragment was cut with the restriction enzymes (PstI and XbaI), ligated into a transfer vector pVL1393 (Invitrogen Co.), and the resulting vector was co-transfected along with infectious baculovirus into Sf-9 insect cells and the supernatant was plaque assayed to yield human MCP-1 gene baculovirus recombinant.
2. Synthesis of [^125I]-labeled Human MCP-1 Expressed in Baculovirus
Using the method of K. Ishii et al. (Biochem Biophys Research Communications 1995, 206, 955-961), 5×10^6 Sf-6 insect cells was infected with 5×10^7 PFU (plaque forming units) of the above human MCP-1 recombinant baculovirus and cultured for 7 days in Ex-Cell 401 medium. The culture supernatant was affinity purified using a heparin Sepharose column (Pharmacia Co.) and then further purified using reverse phase HPLC (Vydac C18 column) to prepare purified human MCP-1. The purified human MCP-1 was protein labeled by Amersham Co. using the Bolton Hunter method to yield [^125I]-labeled baculovirus expressed human MCP-1 (specific activity 2000 Ci/mmol).
3. Measurement of Inhibition of Binding of [^125I]-labeled Baculovirus Expressed Human MCP-1 to THP-1 Cells
(§1) Human monocytic leukemia cell line THP-1 was suspended in assay buffer (RPMI-1640 (Gibco-BRL Co.) containing 0.1% BSA and 25 mM HEPES adjusted to pH 7.4) to give a cell suspension of a concentration of 1×10^7 cells/mL. The test compound was diluted in the assay buffer and used as the test compound solution. [^125I]-labeled human MCP-1 described above was diluted in assay buffer to 1 mCi/mL and used as the labeled ligand solution. In a 96 well filter plate (Millipore Co.), 25 μL of test compound solution, 25 μL of labeled ligand solution and 50 μL of cell suspension were aliquoted into each well in this order, stirred (total reaction volume 100 μL), and incubated for one hour at 18° C.
(§2) After the reaction, the reaction solution was filtered, and the filter was washed twice with 200 μL of cold PBS (200 μL of cold PBS was added and then filtered). The filter was removed and placed in an RIA tube (Iuchi Seieido Co.,), and the radioactivity retained by the cells on the filter were measured using a gamma counter (Aloka Co.).
To calculate the ability of test compound to inhibit binding of human MCP-1 to THP-1 cells, non-specific binding determined by adding 100 ng of unlabeled human MCP-1 in place of the test compound was subtracted, while the counts with no test compound added was taken as 100%.
Inhibition (%)=(1−(A−B)/(C−B))×100
(A, counts with test compound added; B, counts with 100 ng of unlabeled human […] added; C, counts with [^125I]-labeled human MCP-1 added).

[2] = biological target: T2, human MIP-1α binding to THP-1 cells (Homo sapiens, UniProt P32246); experiment: Inhibition of MIP-1α binding to THP-1 cells; conditions: at 100 μM test compound; read-out: inhibitory activity (inhibition of human MIP-1α binding to THP-1 cells)
T2 construct: endogenous in cells; host or cells: THP-1 (human monocytic leukemia cell line), whole cells
T2 sequence (P32246 1-355): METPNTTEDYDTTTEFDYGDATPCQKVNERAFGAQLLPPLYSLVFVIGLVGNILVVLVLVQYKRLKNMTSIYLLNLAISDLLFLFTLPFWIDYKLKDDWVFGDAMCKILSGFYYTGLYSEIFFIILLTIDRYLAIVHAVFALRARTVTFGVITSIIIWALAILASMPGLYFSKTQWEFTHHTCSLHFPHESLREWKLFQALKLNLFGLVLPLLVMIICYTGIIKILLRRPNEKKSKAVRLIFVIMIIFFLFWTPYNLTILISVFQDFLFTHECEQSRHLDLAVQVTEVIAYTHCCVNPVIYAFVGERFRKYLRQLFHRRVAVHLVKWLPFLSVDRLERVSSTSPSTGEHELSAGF
Description: Measurement of Inhibition of MIP-1α Binding to THP-1 Cells by Test Compounds
as §1, with “Iodinated” for “[^125I]-labeled”, “MIP-1α (DuPont NEN Co.)” for “MCP-1 described above”, “250 nCi/mL” for “1 mCi/mL”, “the” for “the labeled”, “solution.” for “solution,”
as §2, with “Co.)” for “Co.,),”
To calculate the ability of test compounds to inhibit binding of human MIP-1α to THP-1 cells, non-specific binding determined by adding 100 ng of unlabeled human MIP-1α (Peprotech Co.) in place of the test compound was subtracted, while the counts with no test compound added was taken as 100%. […]

THP-1 cells = experiment: Inhibition of cell chemotaxis caused by MCP-1 (THP-1 cells); format: cell-based, human; conditions: MCP-1 20 ng/mL, 37° C. 2 hr, read-out: 50% inhibition concentration (IC50) of cell migration
Description: Measurement of Inhibition of Cell Chemotaxis
In order to determine the inhibition of call chemotaxis by the compounds of this invention, we measured call chemotaxis caused by monocyte chemotactic factor MCP-1 using the human monocytic leukemia cell line THP-1 as the chemotactic cell according to the method of Fall et al. (J. Immunol. Methods, […], 33, 239-247). 2×10^6 cells/mL of THP-1 cells (suspended in RPMI-1640 (Flow Laboratories Co.) +10% FCS) was placed in the upper chamber (200 μL) of a 96 well micro-chemotaxis chamber (Neuroprobe, registered tradename), and human recombinant MCP-1 in a same solution (Peprotech Co.) at a final concentration of 20 ng/mL was placed in the lower chamber, with a polycarbonate filter (PVP-free, Neuroprobe; registered tradename) placed between the two chambers, These were incubated at 37° C. for 2 hr in 5% CO2.
The filter was removed, and the cells which had migrated to the underside of the filter was fixed, stained using Diff Quick (Kokusai Shiyaku Co.) and then quantitated using a plate reader (Molecular Device Co.) at a wavelength of 550 nm to determine the index of cell migration as a mean of 3 wells, In addition. test compounds were placed in the upper chamber along with THP-1, and the inhibition of cell migration (inhibition IC50 (μM)) was determined. […]

MCP-1 receptor = biological target: T3, MCP-1 receptor (Homo sapiens, UniProt P41597); experiment: Inhibition of binding of [125I]-labeled human MCP-1 to cells expressing the MCP-1 receptor (293-EBNA transfectant); conditions: dose dependent inhibition; 293-EBNA cells expressing MCP-1 receptor; read-out: 50% inhibitory concentration (IC50), MCP-1 binding to MCP-1 receptor expressing cells
T3 construct: expressed in transfected cells
T3 sequence (P41597 1-360 isoform P41597-2): T1 sequence (P41597 1-360 isoform P41597-2)
From the text: Measurement of Inhibition of Binding of [^125I]-labeled Human MCP-1 to Cells Expressing the MCP-1 Receptor
1. Derivation of Cells Expressing the MCP-1 Receptor
cDNA fragment containing the MCP-1 receptor reported by S. Yamagami et al., Biochemical Biophysical Research Communications 1994, 202, 1156-1162) was cloned into the expression plasmid pCEP4 (Invitrogen Co.) at the NotI site, and the plasmid obtained was transfected into the human kidney epithelial cell line 293-EBNA using the Lipofectamine reagent (Gibco-BRL Co.). The cells were cultured in the presence of the selective agent (Hygromycin), and a stably expressing transfectant line was obtained. The express ion of the receptor was confirmed by binding of [^125I]-labeled human MCP-1.
2. Measurement of Inhibition of Binding of [^125I]-labeled Baculovirus Expressed Human MCP-1 to the MCP-1 Receptor Expressing Cells
The MCP-1 receptor expressing cells on tissue culture dishes were scraped using a call scraper and suspended in assay buffer (D-MEM(Gibco-BRL Co.) containing 0.1% BSA and 25 mM HEPES adjust ed to pH 7.4) to give a cell suspension of a concentration of 6×10^6 cellls/mL. The test compound was diluted in the assay buffer to concentrations of […], and 100 μM. The remainder of the procedure was as described in Example 163.

SMILES	inhibition at 100 µM [1] [%]	other results
OC(CCN1CCCN(Cc2ccc(Cl)cc2)CC1)(c1ccccc1)c1ccccc1 [Compound No. 107, 1-(3-Hydroxy-3,3-diphenylpropyl)-4-(4-chlorobenzyl)homopiperazine]	> 20	inhibition at 100 µM [2]: > 20%
NC(=O)c1ccc(CN2CCCN(CCC(c3ccccc3)c3ccccc3)CC2)cc1 [Compound No. 55, 1-(3,3-Diphenylpropyl)-4-(4-carbamoylbenzyl)homopiperazine]	> 20	
c1ccc(C(CCN2CCCN(Cc3ccncc3)CC2)c2ccccc2)cc1 [compound 240]		IC50 (THP-1 cells): 30 µM
CC(C)(C)OC(=O)N1CCCN(CCC(O)(c2ccccc2)c2cccc(O)c2)CC1 (centres unmarked) [Compound No. 294, 1-(tert-butyloxycarbonyl)-4-[3-hydroxy-3-(3-hydroxyphenyl)-3-phenylpropyl]homopiperazine]	> 20	
CS(=O)(=O)c1ccc(CN2CCCN(CCC(O)(c3ccco3)c3ccco3)CC2)cc1 [Compound No. 129, 1-[3,3-Di(2-furyl)-3-hydroxypropyl]-4-[4-(methylsulfonyl)benzyl]homopiperazine]	> 20	
CS(=O)(=O)c1ccc(CN2CCCN(CCC(O)(c3ccc(O)cc3)c3ccc(O)cc3)CC2)cc1 [Compound No. 119, 1-[3,3-bis(4-Hydroxyphenyl)-3-hydroxypropyl]-4-[4-(methylsulfonyl)benzyl]homopiperazine]	> 20	
CC(=O)Nc1cccc(C(O)(CCN2CCCN(Cc3ccc(S(C)(=O)=O)cc3)CC2)c2ccccc2)c1 (centres unmarked) [Compound No. 162, 1-[3-(3-Acetylaminophenyl)-3-hydroxy-3-phenylpropyl]-4-[4-(methylsulfonyl)benzyl]homopiperazine]	> 20	
Cn1cccc1C(O)(CCN1CCCN(Cc2ccc(S(C)(=O)=O)cc2)CC1)c1ccccc1 (centres unmarked) [Compound No. 136, 1-[3-Hydroxy-3-(1-methyl-2-pyrrolyl)-3-phenylpropyl]-4-[4-(methylsulfonyl)benzyl]homopiperazine]	> 20	

Further lines, with some results ahead:

inhibition at 100 µM [1] [%]	SMILES	other results
> 20	CS(=O)(=O)c1ccc(CN2CCCN(CCC(c3ccccc3)c3ccccc3)CC2)cc1 [compound 36]	IC50 (THP-1 cells; Homo sapiens): 9 µM; IC50 (MCP-1 receptor): 17 µM
> 20	CC(=O)N1CCCN(CCC(O)(c2ccccc2)c2cccc(O)c2)CC1 (centres unmarked) [Compound No. 296, 1-acetyl-4-[3-hydroxy-3-(3-hydroxyphenyl)-3-phenylpropyl]homopiperazine]	
> 20	Oc1cccc(C(O)(CCN2CCCNCC2)c2ccccc2)c1 (centres unmarked) [Compound No. 295, 1-[3-hydroxy-3-(3-hydroxyphenyl)-3-phenylpropyl]homopiperazine]	
